Laboratory results: patent US8759535B2, “Substituted fused imidazole derivatives, pharmaceutical compositions, and methods of use thereof” (High Point Pharmaceuticals, LLC, priority 2010, dated 2014)
Structures can show the parent of a compound that is named as a salt.

What follows are compounds tested on HMOX1 (assay: HMOX1 Protein Assay (immunostaining of HO-1 in NHLF cells, GE InCell 1000)). Settings: Homo sapiens, fold change above DMSO treated cells, 3 μM compound (asterisk), 16 h.
Assay type: cell-based
In short: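 NHLF cells seeded overnight in FGM-2, then exposed to compound or DMSO vehicle for 16 h, fixed, and immunostained for HO-1 with Hoechst nuclear counterstain; imaged on InCell 1000. Values are fold change over DMSO-treated cells, generally at 5 μM (0.8% DMSO), with asterisked entries at 3 μM.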

Point of comparison: `CNCCn1c(Nc2nc3ccc(OC(F)(F)F)cc3s2)nc2cc(C(=O)NCCOCCO)ccc21` [Example 239, 1-(2-Methylamino-ethyl)-2-(6-trifluoromethoxy-benzothiazol-2 ylamino)-1H-benzoimidazole-5-carboxylic acid[2-(2-hydroxy-ethoxy)-ethyl]-amide hydrochloride], fold induction at 3 µM 10. Against it:
- Cn1c(Nc2nc3ccc(C(F)(F)F)cc3s2)nc2cc(C(=O)NCC(=O)N3CC[C@@H](O)C3)ccc21 [Example 402, 1-Methyl-2-(6-trifluoromethyl-benzothiazol-2-ylamino)-1H-benzoimidazole-5-carboxylic acid [2-((R)-3-hydroxy-pyrrolidin-1-yl)-2-oxo-ethyl]-amide] — higher, 24
- CO[C@@H]1CCN(C(=O)CNC(=O)c2ccc3c(c2)nc(Nc2nc4ccc(Cl)cc4s2)n3C)C1 [Example 408, 2-(6-Chloro-benzothiazol-2-ylamino)-1-methyl-1H-benzoimidazole-5-carboxylic acid [2-((R)-3-methoxy-pyrrolidin-1-yl)-2-oxo-ethyl]-amide] — higher, 25
- C[C@H](CO)OCCNC(=O)c1ccc2c(c1)nc(Nc1nc3ccc(OC(F)(F)F)cc3s1)n2C [Example 242, 1-Methyl-2-(6-trifluoromethoxy-benzothiazol-2-ylamino)-1H-benzoimidazole-5-carboxylic acid [2-((R)-2-hydroxy-1-methyl-ethoxy)-ethyl]-amide] — higher, 28.1
- CN1CCN(C(=O)CNC(=O)c2ccc3c(c2)nc(Nc2nc4ccc(C(F)(F)F)cc4s2)n3C)CC1 [Example 427, 1-Methyl-2-(6-trifluoromethyl-benzothiazol-2-ylamino)-1H-benzoimidazole-5-carboxylic acid [2-(4-methyl-piperazin-1-yl)-2-oxo-ethyl]-amide] — higher, 17
- Cn1c(Nc2nc3ccc(Cl)cc3s2)nc2cc(C(=O)NCCCN3CCOCC3)ccc21 [Example 359, 2-(6-Chloro-benzothiazol-2-ylamino)-1-methyl-1H-benzoimidazole-5-carboxylic acid (3-morpholin-4-yl-propyl)-amide] — higher, 17.4
- CN(C)CCCC[C@H](NC(=O)c1ccc2c(c1)nc(Nc1nc3ccc(C(F)(F)F)cc3s1)n2C)C(=O)N(C)C [Example 370, 1-Methyl-2-(6-trifluoromethyl-benzothiazol-2-ylamino)-1H-benzoimidazole-5-carboxylic acid ((S)-5-dimethylamino-1-dimethylcarbamoyl-pentyl)-amide] — higher, 19.3

Same assay, conditions: Homo sapiens, fold change above DMSO treated cells, 5 μM compound, 16 h

Point of comparison: `Cn1c(Nc2nc3ccc(Cl)cc3s2)nc2cc(C(=O)NCC(=O)N3CCN(S(C)(=O)=O)CC3)ccc21` [Example 429, 2-(6-Chloro-benzothiazol-2-ylamino)-1-methyl-1H-benzoimidazole-5-carboxylic acid [2-(4-methanesulfonyl-piperazin-1-yl)-2-oxo-ethyl]-amide], fold induction at 5 µM 21.4. Against it:
- CCn1c(Nc2nc3ccc(C(F)(F)F)cc3s2)nc2cc(C(=O)NCC(=O)N(C)C)ccc21 [Example 187, 1-Ethyl-2-(6-trifluoromethyl-benzothiazol-2-ylamino)-1H-benzoimidazole-5-carboxylic acid dimethylcarbamoylmethyl-amide] — lower, 18.4
- Cn1c(Nc2nc3ccc(OC(F)(F)F)cc3s2)nc2cc(C(=O)NCCOCCF)ccc21 [Example 47, 1-Methyl-2-(6-trifluoromethoxy-benzothiazol-2-ylamino)-1H-benzoimidazole-5-carboxylic acid [2-(2-fluoro-ethoxy)-ethyl]-amide] — lower, 11.3
- Cn1c(Nc2nc3ccc(OC(F)(F)F)cc3s2)nc2cc(C(=O)NCCN3CCC(O)CC3)ccc21 [Example 192, 1-Methyl-2-(6-trifluoromethoxy-benzothiazol-2-ylamino)-1H-benzoimidazole-5-carboxylic acid [2-(4-hydroxy-piperidin-1-yl)-ethyl]-amide] — higher, 28.8
- CCNC(=O)c1ccc2c(c1)nc(Nc1nc3ccc(C(F)(F)F)cc3s1)n2C [Example 26, 1-Methyl-2-(6-trifluoromethyl-benzothiazol-2-ylamino)-1H-benzoimidazole-5-carboxylic acid ethylamide] — lower, 15.5
- Cc1nc(-c2ccc3nc(Nc4nc5cc(OC(F)(F)F)ccc5s4)n(C)c3c2)n[nH]1 [Example 198, [1-Methyl-6-(5-methyl-1H-1,2,4-triazol-3-yl)-1H-benzimidazol-2-yl]-(5-trifluoromethoxy-benzothiazol-2-yl)-amine] — lower, 12
- COC(=O)c1ccc2c(c1)nc(Nc1nc3ccc(F)cc3s1)n2C [Example 112, 2-(6-Fluoro-benzothiazol-2-ylamino)-1-methyl-1H-benzoimidazole-5-carboxylic acid methyl ester] — lower, 17.5
- CCOCCNC(=O)c1ccc2c(c1)nc(Nc1nc3ccc(Cl)cc3s1)n2CC [Example 179, 2-(6-Chloro-benzothiazol-2-ylamino)-1-ethyl-1H-benzoimidazole-5-carboxylic acid (2-ethoxy-ethyl)-amide] — higher, 24.4
- Cn1c(Nc2nc3ccc(OC(F)(F)F)cc3s2)nc2cc(C(=O)NCC(=O)N3CCCC(CO)C3)ccc21 (stereo not drawn) [Example 440, 1-Methyl-2-(6-trifluoromethoxy-benzothiazol-2-ylamino)-1H-benzoimidazole-5-carboxylic acid [2-(3-hydroxymethyl-piperidin-1-yl)-2-oxo-ethyl]-amide] — higher, 28.2
- Cn1c(Nc2nc3ccc(Cl)cc3s2)nc2cc(C(=O)N[C@H]3CC[C@H](C(=O)O)CC3)ccc21 [Example 378, 4-{[2-(6-Chloro-benzothiazol-2-ylamino)-1-methyl-1H-benzoimidazole-5-carbonyl]-amino}-trans-cyclohexanecarboxylic acid] — higher, 24.9
- COCCNC(=O)c1ccc2c(c1)nc(Nc1nc3ccc(Cl)cc3s1)n2C [Example 31, 2-(6-Chloro-benzothiazol-2-ylamino)-1-methyl-1H-benzoimidazole-5-carboxylic acid (2-methoxy-ethyl)-amide] — higher, 23.6
- Cn1c(Nc2nc3ccc(OC(F)(F)F)cc3s2)nc2ccc(-c3nc[nH]n3)cc21 [Example 197, [1-Methyl-6-(1H-1,2,4-triazol-3-yl)-1H-benzimidazol-2-yl]-(6-trifluoromethoxy-benzothiazol-2-yl)-amine] — lower, 18
- Cn1c(Nc2nc3ccc(OC(F)(F)F)cc3s2)nc2cc(C(=O)NCC#N)ccc21 [Example 211, 1-Methyl-2-(6-trifluoromethoxy-benzothiazol-2-ylamino)-1H-benzoimidazole-5-carboxylic acid cyanomethyl-amide] — higher, 46.1
- Cn1c(Nc2nc3ccc(OC(F)(F)F)cc3s2)nc2cc(C(=O)NCCN)ccc21 [Example 104, 1-Methyl-2-(6-trifluoromethoxy-benzothiazol-2-ylamino)-1H-benzoimidazole-5-carboxylic acid (2-amino-ethyl)-amide hydrochloride] — lower, 16.3
- Cn1c(Nc2nc3ccc(OC(F)(F)F)cc3s2)nc2cc(C(=O)NCC(=O)N3CCC(O)CC3)ccc21 [Example 435, 1-Methyl-2-(6-trifluoromethoxy-benzothiazol-2-ylamino)-1H-benzoimidazole-5-carboxylic acid [2-(4-hydroxy-piperidin-1-yl)-2-oxo-ethyl]-amide] — higher, 30.2
- Cn1c(Nc2nc3ccc(OC(F)(F)F)cc3s2)nc2cc(C(=O)NCCN3CCCCC3)ccc21 [Example 333, 1-Methyl-2-(6-trifluoromethoxy-benzothiazol-2-ylamino)-1H-benzoimidazole-5-carboxylic acid (2-piperidin-1-yl-ethyl)-amide] — lower, 14.5
- COCCNC(=O)c1ccc2c(c1)nc(Nc1nc3ccc(C(F)(F)F)cc3s1)n2C [Example 25, 1-Methyl-2-(6-trifluoromethyl-benzothiazol-2-ylamino)-1H-benzoimidazole-5-carboxylic acid (2-methoxy-ethyl)-amide] — higher, 27.1
- CN(C)CC(=O)NCCNC(=O)c1ccc2c(c1)nc(Nc1nc3ccc(OC(F)(F)F)cc3s1)n2C [Example 323, 1-Methyl-2-(6-trifluoromethoxy-benzothiazol-2-ylamino)-1H-benzoimidazole-5-carboxylic acid [2-(2-dimethylamino-acetylamino)-ethyl]-amide] — higher, 113
- CN[C@@H]1CCN(C(=O)CNC(=O)c2ccc3c(c2)nc(Nc2nc4ccc(OC(F)(F)F)cc4s2)n3C)C1 [Example 413, 1-Methyl-2-(6-trifluoromethoxy-benzothiazol-2-ylamino)-1H-benzoimidazole-5-carboxylic acid [2-((R)-3-methylamino-pyrrolidin-1-yl)-2-oxo-ethyl]-amide hydrochloride] — higher, 31.8
- Cn1c(Nc2nc3ccc(Cl)cc3s2)nc2cc(C(=O)NCCN3CCCC(F)(F)C3)ccc21 [Example 336, 2-(6-Chloro-benzothiazol-2-ylamino)-1-methyl-1H-benzoimidazole-5-carboxylic acid [2-(3,3-difluoro-piperidin-1-yl)-ethyl]-amide] — lower, 16.1
- COCCn1c(Nc2nc3ccc(Cl)cc3s2)nc2cc(C(=O)NCC(=O)N3CCC(O)CC3)ccc21 [Example 438, 2-(6-Chloro-benzothiazol-2-ylamino)-1-(2-methoxy-ethyl)-1H-benzoimidazole-5-carboxylic acid [2-(4-hydroxy-piperidin-1-yl)-2-oxo-ethyl]-amide] — higher, 25.9
- COC(=O)[C@H](C)NC(=O)c1ccc2c(c1)nc(Nc1nc3ccc(OC(F)(F)F)cc3s1)n2C [Example 143, (S)-2-{[1-Methyl-2-(6-trifluoromethoxy-benzothiazol-2-ylamino)-1H-benzoimidazole-5-carbonyl]-amino}-propionic acid methyl ester] — higher, 22.4
- Cn1c(Nc2nc3ccc(Cl)cc3s2)nc2cc(C(=O)NCCOCCCF)ccc21 [Example 249, 2-(6-Chloro-benzothiazol-2-ylamino)-1-methyl-1H-benzoimidazole-5-carboxylic acid [2-(3-fluoro-propoxy)-ethyl]-amide] — higher, 31.2
